Data from patent US4758586A, “Indolyl compounds and hyposensitivity use thereof” (USV Pharmaceutical Corp., priority 1986, dated 1988).

Key:
[1] = tested on: leukotriene C4 -induced contraction of guinea pig peripheral strips; assay: SRS-A antagonists (SALTI): leukotriene C4-induced contraction of guinea pig peripheral lung strips; conditions: Cavia porcellus; 0.2 μM leukotriene C4-induced contraction; read-out: SALTI, I50 μM
Experimental: Protocol for SRS-A (Slow-reacting Substance of Anaphylaxis Antagonists (SALTI)
Peripheral strips of guinea pig lungs are prepared and hung in tissue baths (Metro #ME-5505, 10 ml) according to the published procedure (Pro. Nat'l. Acad. Sci., U.S.A. Volume 77, pp. 4354-4358, 1980). The strips are thoroughly rinsed in Assay Buffer and then connected with surgical silk thread to the support rods from the tissue baths. The rods are adjusted in the baths and the strips connected to the pressure transducers (Grass FT 103 or Gould UC-3). The tissue baths are aerated with 95% oxygen 5% carbon dioxide and maintained at 37° C. The Assay Buffer has been made as follows: For each liter of buffer the following are added to approximately 800 ml of water distilled in glass--6.87 g. NaCl, 0.4 g. KCl, […]. NaHCO3, 0.14 g. NaH2 PO4.H2 O, 0.21 g. MgSO4.7H2 O, and 2.0 g. D-glucose. Then a solution of 0.368 g. CaCl2.2H2 O in 100 ml glass-distilled water is slowly added to the buffer. Sufficient water is added to adjust the volume to one liter, and the solution is aerated with 95% oxygen--5% carbon dioxide. Usually 10 liters of buffer are used for an experiment with 4 tissues.
After the tissues have been repeatedly washed and allowed to equilibrate in the tissue bath, they are challenged with 1 μM histamine. After maximum contractions have been obtained, the tissues are washed, and allowed to relax back to baseline tension. This histamine challenge procedure is repeated at least 1 to 2 more times to obtain a repeatable control response. The average response to 1 μM histamine for each tissue is used to normalize all other challenges.
Responses of each tissue to a predetermined concentration of leukotriene are then obtained. Usually test compounds are examined initially at 30 μM on resting tension of the tissues without any added agonist or antagonist to determine if the compound has any possible intrinsic activity. The tissues are washed, and the test compound is added again. Leukotriene is added after the desired pre-incubation time. The intrinsic activity of the compounds, and their effect on leukotriene-induced contractions are then recorded.
The concentration required for 50% inhibition of 0.2 μM leukotriene C4 -induced contraction of guinea pig peripheral strips for representative compounds of the present invention is shown in Table 3.

[2] = biological target: T1, Phospholipase A2 (PLA2) (Rattus norvegicus, UniProt P14423); assay: In vitro assay for inhibitors of Phospholipase A2 (PLA2) from rat platelets; format: biochemical; conditions: pH 7.2, 37° C.; read-out: PLA2, I50
T1 construct: obtained by aggregation of purified rat platelets; from tissue; host or cells: rat platelets (enzyme obtained by aggregation)
T1 sequence (P14423 22-146): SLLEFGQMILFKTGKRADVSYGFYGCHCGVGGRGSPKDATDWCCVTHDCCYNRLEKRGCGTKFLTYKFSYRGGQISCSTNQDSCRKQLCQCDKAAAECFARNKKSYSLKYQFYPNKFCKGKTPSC
Excerpt: B. In Vitro Assay For Inhibitors of Phospholipase A2 Assayed at pH 7.0 (PLA2)
The PLA2 employed in this screen is obtained by aggregation of purified rat platelets. In the enzyme assay phosphatidylcholine having ^14 C-labeled palmitate residues at R1 and R2 is employed as substrate. PLA2 acts by cleaving the R2 fatty acid ester bond yielding free fatty acid and lysophosphatidyl choline as follows: [drawing 19]
Following completion of the reaction, the assay medium is acidified and extracted with hexane, which takes up unreacted substrate and free fatty acid product. The hexane extract is passed over a short silica column which retains 99% of the phosphatidyl choline. The ^14 C-labeled palmitic acid is not retained (90% recovery in eluate) and is collected directly in scintillation counting vials. The released palmitic acid is conveniently quantitated by liquid scintillation spectrometry.
The compounds were tested at 100 uM in a buffer containing 0.3 mM unlabeled phosphatidylcholine (PC), 20-30,000 cpm of ^14 C(CPC), […], 1 mM CaCl2 and 50 mM tris-HCl adjusted to pH 7.2 with 1N NaOH. […] The temperature of the buffer was maintained at a temperature of 37° C. The reaction was initiated by addition of the enzyme and it was terminated 30 minutes later by the addition of […] of 1N HCl.
Following acidification, the samples were extracted with 2 ml of 2-propanol and 2 ml of hexane, vortexed and allowed to stand until the phases separated. Free fatty acids (FFA) and some unreacted substrate were taken up in the isopropanol-saturated hexane. The hexane phase of the extraction mixture was transferred to a short silica gel column which retained […] but not the FFA. The column effluent was collected directly in scintillation vials. The columns were washed once with an additional 2 ml of hexane. The radio labeled FFA were quantitated by liquid scintillation spectrometry.

[3] = tested on: Phospholipase C (PLC); assay: In vitro assay for inhibitors of Phospholipase C (PLC) from rat platelets; format: biochemical; conditions: read-out: PLC, I50
Excerpt: A. Protocol For In Vitro Assay For Inhibitors Of Phospholipase C (PLC)
The PLC employed in this screen is obtained by aggregation of purified rat platelets in the presence of CaCl2 and ADP. In the enzyme assay phosphatidylinositol having ^3 H -labeled arachidonate residues at R2 is employed as substrate. PLC acts by cleaving the phosphate ester bond yielding diglyceride as follows: [drawing 18]
Following completion of the reaction, the assay medium is acidified and extracted with hexane which takes up unreacted substrate and diglyceride. The hexane extract is passed over a short silica gel column which retains 99% of the phosphatidylinositol. The ^3 H-labeled diglyceride is not retained […]. The diglyceride is conveniently quantitated by liquid scintillation spectrometry.
The compounds were tested at 300 u in a buffer containing 0.06 mM unlabeled phosphatidylcholine (PC), 20-30,000 cpm of (CPC), 150 mM NaCl, 5 mM CaCl2 and 50 mM tris(hydroxymethyl)methylaminopropanesulfonic acid buffer, adjusted to pH 9.0 with 1N NaOH. The temperature of the buffer was maintained at a temperature of 37° C. The reaction was initiated by addition of the enzyme and it was terminated 10 minutes later by addition of 1 ml of 1N HCl.
Following acidification, the samples were extracted with 2 ml of isopropyl alcohol and 2 ml of hexane, vortexed and allowed to stand until the phases separate. […] and some unreacted substrate were taken up in the isopropanol-saturated hexane. The hexane phase of the extraction mixture was transferred to a short silica gel column which retains unreacted phosphatidylinositol, but not the 3H-diglyceride. The column effluent was collected directly in scintillation vials. The columns were washed once with additional 2 ml of hexane. The radiolabelled diglycerides were quantitated by liquid scintillation.

## Cc1c(C=CC=CC(=O)O)c2ccccc2n1Cc1ccccc1 [Example 12, 5-(1-Benzyl-2-methylindol-3-yl)-2,4-Pentadienoic Acid]
[1]
  IC50: 15 µM
[2]
  IC50: 37 µM
[3]
  IC50: 40 µM
